Reference: patent US12180187B2, “1-phenyl-5-azinylpyrazolyl-3-oxyalkyl acids and their use for controlling unwanted plant growth” (BAYER AKTIENGESELLSCHAFT, priority 2019, dated 2024)

How the values were obtained:
ALOMY [1] = test: Pre-emergence action against ALOMY, 1280 g/ha; format: in vivo, Alopecurus myosuroides; settings: visual scoring after about 3 weeks vs untreated controls, 100% = plants have died, 0% = like control plants
Method in brief: (§1)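 Pre-emergence pot test: seeds in sandy loam, soil-covered, sprayed on soil surface (WP/EC, 0.5% additive, 600 L/ha water); greenhouse ~3 wk; visual % effect vs untreated, 0–100%.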

DIGSA [2] = test: Pre-emergence action against DIGSA, 1280 g/ha; format: in vivo, Digitaria sanguinalis; settings: visual scoring after about 3 weeks vs untreated controls, 100% = plants have died, 0% = like control plants
Method in brief: as §1

ECHCG [3] = test: Pre-emergence action against ECHCG, 1280 g/ha; format: in vivo, Echinochloa crus-galli; settings: visual scoring after about 3 weeks vs untreated controls, 100% = plants have died, 0% = like control plants
Method in brief: as §1

LOLRI [4] = test: Pre-emergence action against LOLRI, 1280 g/ha; format: in vivo, Lolium rigidum; settings: visual scoring after about 3 weeks vs untreated controls, 100% = plants have died, 0% = like control plants
Method in brief: as §1

POAAN [5] = test: Pre-emergence action against POAAN, 1280 g/ha; format: in vivo, Poa annua; settings: visual scoring after about 3 weeks vs untreated controls, 100% = plants have died, 0% = like control plants
Method in brief: as §1

SETVI [6] = test: Pre-emergence action against SETVI, 1280 g/ha; format: in vivo, Setaria viridis; settings: visual scoring after about 3 weeks vs untreated controls, 100% = plants have died, 0% = like control plants
Method in brief: as §1

AMARE [7] = test: Pre-emergence action against AMARE, 1280 g/ha; format: in vivo, Amaranthus retroflexus; settings: scored visually after about 3 weeks vs untreated controls (100% = plants have died)
Method in brief: as §1

MATIN [8] = test: Pre-emergence action against MATIN, 1280 g/ha; format: in vivo, Tripleurospermum inodorum (Matricaria inodora); settings: scored visually after about 3 weeks vs untreated controls (100% = plants have died)
Method in brief: as §1

STEME [9] = test: Pre-emergence action against STEME, 1280 g/ha; format: in vivo, Stellaria media; settings: scored visually after about 3 weeks vs untreated controls (100% = plants have died)
Method in brief: as §1

VERPE [10] = test: Pre-emergence action against VERPE, 1280 g/ha; format: in vivo, Veronica persica; settings: scored visually after about 3 weeks vs untreated controls (100% = plants have died)
Method in brief: as §1

ALOMY [11] = test: Pre-emergence action at 320 g/ha against ALOMY; format: in vivo, Alopecurus myosuroides; settings: scored visually after about 3 weeks vs untreated controls (100% = plants have died)
Method in brief: (§2)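 Weed seeds sown in pots and covered with soil; compounds formulated as WP or EC were sprayed onto the soil surface as aqueous suspension or emulsion with 0.5% additive at 600 l/ha water. Pots kept in greenhouse; activity scored visually after about 3 weeks versus untreated controls (100% = plants dead, 0% = like control).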

DIGSA [12] = test: Pre-emergence action at 320 g/ha against DIGSA; format: in vivo, Digitaria sanguinalis; settings: visual scoring after about 3 weeks vs untreated controls
Method in brief: as §2

SETVI [13] = test: Pre-emergence action at 320 g/ha against SETVI; format: in vivo, Setaria viridis; settings: visual scoring after about 3 weeks vs untreated controls
Method in brief: as §2

AMARE [14] = test: Pre-emergence action at 320 g/ha against AMARE; format: in vivo, Amaranthus retroflexus; settings: visual scoring after about 3 weeks vs untreated controls
Method in brief: as §2

MATIN [15] = test: Pre-emergence action at 320 g/ha against MATIN; format: in vivo, Tripleurospermum inodorum (Matricaria inodora); settings: visual scoring after about 3 weeks vs untreated controls
Method in brief: as §2

POLCO = test: Pre-emergence action at 320 g/ha against POLCO; format: in vivo, Fallopia convolvulus (Polygonum convolvulus); settings: visual scoring after about 3 weeks vs untreated controls
Method in brief: as §2

VERPE [16] = test: Pre-emergence action at 320 g/ha against VERPE; format: in vivo, Veronica persica; settings: visual scoring after about 3 weeks vs untreated controls
Method in brief: as §2

VIOTR = test: Pre-emergence action at 320 g/ha against VIOTR; format: in vivo, Viola tricolor; settings: dosage 320 g/ha
Method in brief: as §2

ALOMY [17] = test: Post-emergence action against ALOMY, 1.28 kg/ha; format: in vivo, Alopecurus myosuroides; settings: dosage 1280 g/ha, visual rating about 3 weeks after treatment vs untreated controls
Method in brief: (§3)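 Spray at one-leaf stage with WP/EC + 0.5% additive, 600 L water/ha. Greenhouse, optimum conditions, ~3 wk. Visual % control vs untreated; 0 = no effect, 100 = dead.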

DIGSA [18] = test: Post-emergence action against DIGSA, 1.28 kg/ha; format: in vivo, Digitaria sanguinalis; settings: dosage 1280 g/ha, visual rating about 3 weeks after treatment vs untreated controls
Method in brief: as §3

ECHCG [19] = test: Post-emergence action against ECHCG, 1.28 kg/ha; format: in vivo, Echinochloa crus-galli; settings: dosage 1280 g/ha, visual rating about 3 weeks after treatment vs untreated controls
Method in brief: as §3

POAAN [20] = test: Post-emergence action against POAAN, 1.28 kg/ha; format: in vivo, Poa annua; settings: dosage 1280 g/ha, visual rating about 3 weeks after treatment vs untreated controls
Method in brief: as §3

MATIN [21] = test: Post-emergence action against MATIN, 1.28 kg/ha; format: in vivo, Tripleurospermum inodorum (Matricaria inodora); settings: dosage 1280 g/ha, visual rating about 3 weeks after treatment vs untreated controls (100% = plants died)
Method in brief: as §3

STEME [22] = test: Post-emergence action against STEME, 1.28 kg/ha; format: in vivo, Stellaria media; settings: dosage 1280 g/ha, visual rating about 3 weeks after treatment vs untreated controls (100% = plants died)
Method in brief: as §3

VERPE [23] = test: Post-emergence action against VERPE, 1.28 kg/ha; format: in vivo, Veronica persica; settings: dosage 1280 g/ha, visual rating about 3 weeks after treatment vs untreated controls (100% = plants died)
Method in brief: as §3

ALOMY [24] = test: Post-emergence action against ALOMY, 320 g/ha; format: in vivo, Alopecurus myosuroides; settings: dosage 320 g/ha, visual rating about 3 weeks after treatment vs untreated controls (100% = plants died)
Excerpt: Accordingly, the compounds of the invention have good herbicidal action against a broad spectrum of weed grasses and broad-leaved weeds and are therefore suitable for controlling unwanted vegetation by the post-emergence method. • b) Seeds of monocotyledonous and dicotyledonous weeds and crop plants are placed in sandy loam in plastic or organic planting pots, covered with soil and cultivated in a greenhouse under controlled growth conditions. 2 to 3 weeks after sowing, the test plants are treated at the one-leaf stage. The compounds of the invention, formulated in the form of wettable powders (WP) or as emulsion concentrates (EC), are then sprayed onto the green parts of the plants as aqueous suspension or emulsion with addition of 0.5% additive at a water application rate of 600 l/ha (converted). After the test plants have been kept in the greenhouse under optimum growth conditions for about 3 weeks, the activity of the preparations is rated visually in comparison to untreated controls. For example, 100% activity=the plants have died, 0% activity=like control plants. Tables 39 to 49 below show the effects of selected compounds of the general formula (I) according to Tables 1 and 2 on various harmful plants and at an application rate corresponding to 320 g/ha, which were obtained by the experimental procedure mentioned above.

KCHSC [25] = test: Pre-emergence action against KCHSC, 1280 g/ha; format: in vivo, Bassia scoparia; settings: scored visually after about 3 weeks vs untreated controls (100% = plants have died)
Excerpt: 1. Pre-Emergence Herbicidal Effect and Crop Plant Compatibility a) Seeds of mono- and dicotyledonous weed plants are placed in plastic pots in sandy loam soil (doubly sown with one species each of mono- or dicotyledonous weed plants per pot) and covered with soil. The compounds of the invention, formulated in the form of wettable powders (WP) or as emulsion concentrates (EC), are then applied onto the surface of the covering soil as aqueous suspension or emulsion with addition of 0.5% additive at a water application rate equivalent to 600 litres per hectare. After the treatment, the pots are placed in a greenhouse and kept under good growth conditions for the trial plants. After about 3 weeks, the effect of the preparations is scored visually in comparison with untreated controls as percentages. For example, 100% activity=the plants have died, 0% activity=like control plants. 1. Pre-Emergence Effectiveness Tables 1 to 12 below show the effects of selected compounds of the general formula (I) according to Tables 1 and 2 on various harmful plants and at an application rate corresponding to 1280 g/ha, which were obtained by the experimental procedure mentioned above.

LOLRI [26] = test: Post-emergence action against LOLRI, 1.28 kg/ha; format: in vivo, Lolium rigidum; settings: dosage 1280 g/ha, visual rating about 3 weeks after treatment vs untreated controls
Method in brief: as §3

ABUTH = test: Post-emergence action against ABUTH, 1.28 kg/ha; format: in vivo, Abutilon theophrasti; settings: dosage 1280 g/ha, visual rating about 3 weeks after treatment vs untreated controls (100% = plants died)
Method in brief: as §3

AMARE [27] = test: Post-emergence action against AMARE, 1.28 kg/ha; format: in vivo, Amaranthus retroflexus; settings: dosage 1280 g/ha, visual rating about 3 weeks after treatment vs untreated controls (100% = plants died)
Method in brief: as §3

SETVI [28] = test: Post-emergence action against SETVI, 1.28 kg/ha; format: in vivo, Setaria viridis; settings: dosage 1280 g/ha, visual rating about 3 weeks after treatment vs untreated controls
Method in brief: as §3

KCHSC [29] = test: Post-emergence action against KCHSC, 1.28 kg/ha; format: in vivo, Bassia scoparia; settings: dosage 1280 g/ha, visual rating about 3 weeks after treatment vs untreated controls (100% = plants died)
Procedure: • a) Seeds of mono- and dicotyledonous weed plants are placed in plastic pots in sandy loam soil (twin sowing with one species each of mono- or dicotyledonous weed plants per pot), covered with soil and cultivated in a greenhouse under controlled growth conditions. 2 to 3 weeks after sowing, the test plants are treated at the one-leaf stage. The compounds of the invention, formulated in the form of wettable powders (WP) or as emulsion concentrates (EC), are applied to the green parts of the plants as aqueous suspension or emulsion with addition of 0.5% additive at a water application rate equivalent to 600 litres per hectare. After the test plants have been kept in the greenhouse under optimum growth conditions for about 3 weeks, the activity of the preparations is rated visually in comparison to untreated controls. For example, 100% activity=the plants have died, 0% activity=like control plants. As shown by the results, compounds of the general formula (I) of the invention, in post-emergence treatment, have very good herbicidal efficacy (90% to 100% herbicidal action) against harmful plants such as Abutilon theophrasti, Digitaria sanguinalis, Echinochloa crus-galli, Matricaria inodora, Poa annua, at an application rate of 1.28 kg of active substance per hectare.

Compound	Pre-emergence action against ALOMY (ALOMY [1])	Pre-emergence action against DIGSA (DIGSA [2])	Pre-emergence action against ECHCG (ECHCG [3])	Pre-emergence action against LOLRI (LOLRI [4])	Pre-emergence action against POAAN (POAAN [5])	Pre-emergence action against SETVI (SETVI [6])	Pre-emergence action against AMARE (AMARE [7])	Pre-emergence action against MATIN (MATIN [8])	Pre-emergence action against STEME (STEME [9])	Pre-emergence action against VERPE (VERPE [10])	Post-emergence action against ALOMY (ALOMY [17])	Post-emergence action against DIGSA (DIGSA [18])	Post-emergence action against ECHCG (ECHCG [19])	Post-emergence action against POAAN (POAAN [20])	Post-emergence action against MATIN (MATIN [21])	Post-emergence action against STEME (STEME [22])	Post-emergence action against VERPE (VERPE [23])	Pre-emergence action against KCHSC (KCHSC [25])	Post-emergence action against LOLRI (LOLRI [26])	Post-emergence action against ABUTH (ABUTH)	other results
CCOC(=O)COc1nn(-c2ccccc2C)c(-c2ccc(F)nc2)c1C(F)(F)F [VII-105]	100%	100%	100%	100%	100%	100%	100%	90%	100%	100%	100%	100%	100%	100%	100%	100%	90%	–	–	–	Pre-emergence action at 320 g/ha against ALOMY in % (ALOMY [11]): 90%; Pre-emergence action against DIGSA in % (DIGSA [12]): 100%; Pre-emergence action against SETVI in % (SETVI [13]): 80%; Pre-emergence action against AMARE in % (AMARE [14]): 90%; Pre-emergence action against MATIN in % (MATIN [15]): 100%; Pre-emergence action against POLCO in % (POLCO): 90%; Pre-emergence action against VERPE in % (VERPE [16]): 90%; Pre-emergence action against VIOTR in % (VIOTR): 90%; Post-emergence action against ALOMY (ALOMY [24]): 90%
CCOC(=O)COc1nn(-c2ccccc2C)c(-c2ccc(F)nc2)c1I [VII-058]	90%	100%	100%	100%	100%	100%	100%	100%	100%	100%	100%	100%	100%	100%	90%	90%	90%	90%	100%	90%	Post-emergence action against AMARE (AMARE [27]): 100%
CONC(=O)COc1nn(-c2ccccc2F)c(-c2ccc(F)nc2)c1Br [VII-068]	100%	100%	100%	100%	100%	100%	100%	100%	100%	100%	100%	100%	100%	100%	90%	–	100%	–	100%	100%	Post-emergence action against SETVI (SETVI [28]): 90%; Post-emergence action against AMARE (AMARE [27]): 100%; Post-emergence action against KCHSC (KCHSC [29]): 90%
C[C@@H](Oc1nn(-c2ccccc2F)c(-c2cnccn2)c1Br)C(=O)O [Example I-002]	90%	100%	–	90%	100%	100%	100%	100%	100%	100%	–	–	–	–	–	–	90%	100%	–	–	–
O=C(COc1nn(-c2ccccc2F)c(-c2ccc(F)cn2)c1Br)NO [II-017]	–	100%	–	–	100%	100%	100%	90%	90%	–	100%	–	–	100%	90%	–	90%	100%	–	–	–
O=C(O)C1CCN(C(=O)COc2nn(-c3ccccc3F)c(-c3cncc(F)c3)c2Br)C1 (stereo not shown) [Example X-040]	–	90%	90%	90%	90%	90%	90%	90%	90%	90%	100%	90%	–	100%	100%	–	100%	90%	–	90%	–
